molecular target: T1, Mucosa-associated lymphoid tissue lymphoma translocation protein 1 (Homo sapiens, UniProt Q9UDY8); test: MALT1 Protease Assay 1
T1 sequence (Q9UDY8 whole entry): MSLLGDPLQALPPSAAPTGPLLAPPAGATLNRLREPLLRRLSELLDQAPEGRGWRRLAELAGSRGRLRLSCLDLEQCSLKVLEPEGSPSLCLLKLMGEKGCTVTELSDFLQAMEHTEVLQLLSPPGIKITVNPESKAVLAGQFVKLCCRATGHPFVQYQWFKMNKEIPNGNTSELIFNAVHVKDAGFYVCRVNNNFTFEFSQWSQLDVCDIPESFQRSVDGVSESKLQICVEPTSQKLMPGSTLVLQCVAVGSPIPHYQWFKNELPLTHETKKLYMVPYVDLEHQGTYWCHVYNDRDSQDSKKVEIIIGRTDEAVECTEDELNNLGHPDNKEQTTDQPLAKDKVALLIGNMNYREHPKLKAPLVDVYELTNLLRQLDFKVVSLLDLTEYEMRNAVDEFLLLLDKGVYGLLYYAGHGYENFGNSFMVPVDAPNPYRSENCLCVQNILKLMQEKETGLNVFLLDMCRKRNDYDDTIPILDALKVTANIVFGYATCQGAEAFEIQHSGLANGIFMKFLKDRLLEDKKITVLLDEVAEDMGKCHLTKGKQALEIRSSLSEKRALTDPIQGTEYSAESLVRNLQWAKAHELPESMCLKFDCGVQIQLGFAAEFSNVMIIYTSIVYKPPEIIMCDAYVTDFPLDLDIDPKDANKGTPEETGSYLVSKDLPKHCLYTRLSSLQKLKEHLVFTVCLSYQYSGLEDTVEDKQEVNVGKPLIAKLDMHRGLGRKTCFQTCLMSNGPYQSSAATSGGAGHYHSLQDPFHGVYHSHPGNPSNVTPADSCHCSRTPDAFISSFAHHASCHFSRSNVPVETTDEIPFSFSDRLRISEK
Procedure: The final assay buffer includes 2 nM of MALT1 full-length protein, 50 μM Ac-LRSR-AMC substrate, 50 mM Tris pH 7.5, 600 mM Sodium Citrate, 1 mM DTT, 1 mM EDTA, and 0.05% BSA in 384-well plate format using black microtiter square well plates (Optiplate 384-F, Perkin Elmer). Test compounds were dissolved in 100% DMSO at stock of 10 mM, with final DMSO concentration 0.1%. Test compounds were pre-incubated with MALT1 protein for 2 h at room temperature. Substrate was added after the pre-incubation and fluorescence signal was measured using Envision at excitation 355 nm and emission 460 nm after 8 hr incubation at RT. Increase in the assay signal was linear over this period and proportional with increase in the enzyme content.

Row | IC50 [nM] | Compound
1 | < 10 | CC1(C)c2c(cnc3cc(Cl)nn23)N(C(=O)Nc2cnc(-n3nccn3)c(Cl)c2)C[C@H]1O [US20240018157, Example 12]
2 | < 10 | C[C@@]1(C(F)(F)F)CN(C(=O)Nc2cnc(-n3nccn3)c(C#N)c2)c2cnc3cc(Cl)nn3c21 [US20240018157, Example 41]
3 | 10 to 100 | COCc1ncc(NC(=O)N2C[C@@](C)(C(F)(F)F)c3c2cnc2cc(Cl)nn32)cc1Cl [US20240018157, Example 45]
4 | 10 to 100 | C[C@@]1(C(F)(F)F)CN(C(=O)Nc2cnc([C@@H]3CCCO3)c(Cl)c2)c2cnc3cc(Cl)nn3c21 [US20240018157, Example 33]
5 | < 10 | Cc1cc2ncc3c(n2n1)C(C(F)(F)F)CCN3C(=O)Nc1cnc(-n2nccn2)c(Cl)c1 (stereo not given) [US20240018157, Example 10]
6 | 10 to 100 | CC1(C)c2c(cnc3cc(Cl)nn23)N(C(=O)Nc2cnc(-n3nccn3)c(Cl)c2)C[C@@H]1O [US20240018157, Example 11]
7 | < 10 | CC1(C)CCN(C(=O)Nc2cnc(-n3nccn3)c(Cl)c2)c2cnc3cc(Cl)nn3c21 [US20240018157, Example 7]
8 | < 10 | C[C@@]1(C(F)(F)F)CN(C(=O)Nc2cnc(-n3cccn3)c(Cl)c2)c2cnc3cc(Cl)nn3c21 [US20240018157, Example 26]
9 | 10 to 100 | Cc1cc2ncc3c(n2n1)[C@@](C)(C(F)(F)F)CN3C(=O)Nc1cnc(-n2nccn2)c(Cl)c1 [US20240018157, Example 31]
10 | < 10 | COc1ccc(NC(=O)N2C[C@@](C)(C(F)(F)F)c3c2cnc2cc(Cl)nn32)cc1Cl [US20240018157, Example 19]
11 | < 10 | Cc1cc(NC(=O)N2C[C@@](C)(C(F)(F)F)c3c2cnc2cc(Cl)nn32)cnc1-n1nccn1 [US20240018157, Example 21]
12 | < 10 | C[C@@]1(C(F)(F)F)CN(C(=O)Nc2cnc(-n3ccnn3)c(C(F)(F)F)c2)c2cnc3cc(Cl)nn3c21 [US20240018157, Example 44]
13 | 10 to 100 | C[C@]1(C2CC2)CN(C(=O)Nc2cnc(-n3nccn3)c(Cl)c2)c2cnc3cc(Cl)nn3c21 [US20240018157, Example 3]
14 | 10 to 100 | C[C@]1(C(F)(F)F)CN(C(=O)Nc2cnc(-n3nccn3)c(Cl)c2)c2cnc3cc(F)nn3c21 [US20240018157, Example 38]
15 | < 10 | C[C@@]1(C(F)(F)F)CN(C(=O)Nc2cnc([C@H]3CCCO3)c(Cl)c2)c2cnc3cc(Cl)nn3c21 [US20240018157, Example 34]
16 | 10 to 100 | C[C@@]1(C(F)(F)F)CN(C(=O)Nc2cnc([C@@H]3CCCCO3)c(Cl)c2)c2cnc3cc(Cl)nn3c21 [US20240018157, Example 46]
17 | 100 to 1000 | CO[C@@H]1CN(C(=O)Nc2cnc(-n3nccn3)c(Cl)c2)c2cnc3cc(Cl)nn3c2C1(C)C [US20240018157, Example 14]
18 | < 10 | C[C@@]1(C(F)(F)F)CN(C(=O)Nc2cnc(OC(F)F)c(Cl)c2)c2cnc3cc(Cl)nn3c21 [US20240018157, Example 49]
19 | 10 to 100 | C[C@@]1(C(F)(F)F)CN(C(=O)Nc2cnc([C@H]3CCCCO3)c(Cl)c2)c2cnc3cc(Cl)nn3c21 [US20240018157, Example 47]
20 | 10 to 100 | C[C@]1(C(F)(F)F)CN(C(=O)Nc2cnc(-n3nccn3)c(Cl)c2)c2cnc3cc(Cl)nn3c21 [US20240018157, Example 15]
21 | < 10 | C[C@@H]1CCN(C(=O)Nc2cnc(-n3nccn3)c(Cl)c2)c2cnc3cc(Cl)nn3c21 [US20240018157, Example 5]
22 | < 10 | C[C@@]1(C(F)(F)F)CN(C(=O)Nc2cnc(-n3cc(O)cn3)c(Cl)c2)c2cnc3cc(Cl)nn3c21 [US20240018157, Example 48]
23 | 10 to 100 | C[C@H]1CCN(C(=O)Nc2cnc(-n3nccn3)c(Cl)c2)c2cnc3cc(Cl)nn3c21 [US20240018157, Example 6]
24 | < 10 | O=C(Nc1cnc(-n2nccn2)c(Cl)c1)N1CC(C(F)(F)F)c2c1cnc1cc(Cl)nn21 (stereo not given) [US20240018157, Example 2]
25 | 10 to 100 | CO[C@H]1CN(C(=O)Nc2cnc(-n3nccn3)c(Cl)c2)c2cnc3cc(Cl)nn3c2C1(C)C [US20240018157, Example 13]
26 | < 10 | C[C@@]1(C(F)(F)F)CN(C(=O)Nc2cnc(-n3nccn3)c(C(F)(F)F)c2)c2cnc3cc(Cl)nn3c21 [US20240018157, Example 40]

molecular target: T1, Mucosa-associated lymphoid tissue lymphoma translocation protein 1; test: MALT1 Protease Assay 2
Procedure: Test compounds were dissolved in 100% DMSO at stock of 10 mM, with final DMSO concentration 0.1%. Test compounds were pre-incubated with MALT1 protein for 2 h at room temperature.

Row | IC50 [nM] | Compound
27 | > 1000 | COC1CN(C(=O)c2ncc(NC(=O)N3CC(C)(C)c4c3cnn3cc(C)nc43)cc2Cl)C1 [US20240018157, Example 207]
28 | 10 to 100 | C[C@@]1(C(F)(F)F)CN(C(=O)Nc2cnnc(C(F)F)c2)c2cnc3cc(Cl)nn3c21 [US20240018157, Example 65]
29 | > 1000 | CCc1cc2ncc3c(n2n1)[C@@](C)(C(F)(F)F)CN3C(=O)Nc1cnnc(C(F)F)c1 [US20240018157, Example 194]
30 | 100 to 1000 | C[C@]1(C(F)(F)F)CN(C(=O)Nc2ccnc(C(F)F)c2)c2cnc3cc(F)nn3c21 [US20240018157, Example 89]
31 | 10 to 100 | O=C(Nc1cnnc(C(F)F)c1)N1C[C@@](C2CC2)(C(F)(F)F)c2c1cnc1cc(Cl)nn21 [US20240018157, Example 144]
32 | 10 to 100 | C[C@]1(C(F)F)CN(C(=O)Nc2cnc(-n3nccn3)c(Cl)c2)c2cnc3cc(Cl)nn3c21 [US20240018157, Example 129]
33 | 10 to 100 | C[C@]1(C(F)(F)F)CN(C(=O)Nc2cnnc(C(F)F)c2)c2cnc3cc(F)nn3c21 [US20240018157, Example 115]
34 | < 10 | C[C@@]1(C(F)(F)F)CN(C(=O)Nc2cnc(-n3nccn3)c(C(F)(F)F)c2)c2cnc3cc(F)nn3c21 [US20240018157, Example 181]
35 | > 1000 | C[C@@]1(C(F)(F)F)CN(C(=O)Nc2cnnc(C(F)F)c2)c2cnc3cc(C#N)nn3c21 [US20240018157, Example 190]
36 | 10 to 100 | Cc1nn2c3c(cnc2c1N)N(C(=O)Nc1cnc(-n2nccn2)c(Cl)c1)C[C@]3(C)C(F)(F)F [US20240018157, Example 159]
37 | 100 to 1000 | C[C@@]1(C(F)(F)F)CN(C(=O)N[C@H]2CCCC(F)(F)C2)c2cnc3cc(Cl)nn3c21 [US20240018157, Example 53]
38 | > 1000 | Cc1cn2ncc3c(c2n1)[C@@](C)(C(F)(F)F)CN3C(=O)Nc1cnnc(C(F)F)c1 [US20240018157, Example 120]
39 | 10 to 100 | CCOc1cc(NC(=O)N2C[C@@](C)(C(F)(F)F)c3c2cnc2cc(Cl)nn32)cn(C(F)F)c1=O [US20240018157, Example 93]
40 | > 1000 | C[C@]1(C(F)(F)F)CN(C(=O)Nc2cnnc(C(F)F)c2)c2cnc3cc(OC(F)F)nn3c21 [US20240018157, Example 199]
41 | 100 to 1000 | C[C@@]1(C(F)(F)F)CN(C(=O)Nc2cc(C(F)F)no2)c2cnc3cc(Cl)nn3c21 [US20240018157, Example 103]
42 | < 10 | CO[C@@]1(C(F)(F)F)CN(C(=O)Nc2cnc(-n3nccn3)c(Cl)c2)c2cnc3cc(Cl)nn3c21 [US20240018157, Example 136]
43 | > 1000 | C[C@@]1(C(F)(F)F)CN(C(=O)Nc2cnnc(C(F)F)c2)c2cnc3cc(OC(F)F)nn3c21 [US20240018157, Example 200]
44 | > 1000 | CC1(C)CC(NC(=O)N2C[C@@](C)(C(F)(F)F)c3c2cnc2cc(Cl)nn32)CCO1 (stereo not given in full) [US20240018157, Example 170]
45 | > 1000 | C[C@@]1(C(F)(F)F)CN(C(=O)Nc2cnnc(C(F)F)c2)c2cnc3cc(CC(F)F)nn3c21 [US20240018157, Example 156]
46 | > 1000 | CNc1nc(NC(=O)N2C[C@@](C)(C(F)(F)F)c3c2cnc2cc(Cl)nn32)ccc1-n1nccn1 [US20240018157, Example 192]
47 | < 10 | COCc1cnn(-c2ncc(NC(=O)N3C[C@@](C)(C(F)(F)F)c4c3cnc3cc(Cl)nn43)cc2Cl)n1 [US20240018157, Example 79]
48 | > 1000 | CN(C)C(=O)COc1ncc(NC(=O)N2C[C@@](C)(C(F)(F)F)c3c2cnc2cc(Cl)nn32)cc1C(F)F [US20240018157, Example 108]

Row | Compound | IC50 [nM]
49 | C[C@@]1(C(F)(F)F)CN(C(=O)n2nc(C(F)F)cc2N)c2cnc3cc(Cl)nn3c21 [US20240018157, Example 177] | > 1000
50 | C[C@@]1(C(F)(F)F)CN(C(=O)Nc2cc(Cl)c(C(=O)O)c(O[C@H]3CCNC3)n2)c2cnc3cc(Cl)nn3c21 [US20240018157, Example 185] | > 1000
